Results: patent US10202361B2, “Pyridazinones as herbicides” (E I DU PONT DE NEMOURS AND COMPANY, priority 2014, dated 2019)

Legend:
Test in all cases: Test D pre-/postemergence controlled growth environment herbicide test
Assay type in all cases: in vivo
Details in all cases: scale 0 to 100
[1] = system: chickweed (common chickweed, Stellaria media)
From the text: (§1) Seeds of plant species selected from bluegrass (annual bluegrass, Poa annua), blackgrass (Alopecurus myosuroides), canarygrass (Phalaris minor), chickweed (common chickweed, Stellaria media), galium (catchweed bedstraw, Galium aparine), downy bromegrass (Bromus tectorum), field poppy (Papaver rhoeas), field violet (Viola arvensis), foxtail, green (green foxtail, Setaria viridis), deadnettle (henbit deadnettle, Lamium amplexicaule), ryegrass, Italian (Italian ryegrass, Lolium multiflorum), kochia (Kochia scoparia), lambsquarters (Chenopodium album), oilseed rape (Brassica napus), pigweed (Amaranthus retroflexus), chamomile (scentless chamomile, Matricaria inodora), Russian thistle (Salsola kali), speedwell (bird's-eye speedwell, Veronica persica), barley, spring (spring barley, Hordeum vulgare), wheat, spring (spring wheat, Triticum aestivum), buckwheat, wild (wild buckwheat, Polygonum convolvulus), mustard, wild (wild mustard, Sinapis arvensis), oat, wild (wild oat, Avena fatua), radish, wild (wild radish, Raphanus raphanistrum), windgrass (Apera spica-venti), barley, winter (winter barley, Hordeum vulgare), and wheat, winter (winter wheat, Triticum aestivum) were planted into a silt loam soil and treated preemergence with test chemicals formulated in a non-phytotoxic solvent mixture which included a surfactant.
(§2) At the same time, these species were planted in pots containing Redi-Earth® planting medium (Scotts Company, 14111 Scottslawn Road, Marysville, Ohio 43041) comprising spaghnum peat moss, vermiculite, wetting agent and starter nutrients and treated with postemergence applications of the test chemicals formulated in the same manner. Plants ranged in height from 2 to 18 cm (1- to 4-leaf stage). Treated plants and controls were maintained in a controlled growth environment for 14 to 21 d after which time all species were compared to controls and visually evaluated. Plant response ratings, summarized in Table D, are based on a scale of 0 to 100 where 0 is no effect and 100 is complete control. A dash (-) response means no test result.

[2] = system: downy bromegrass (Bromus tectorum)
From the text: as §1, §2

[3] = system: buckwheat, wild (wild buckwheat, Polygonum convolvulus)
From the text: as §1, §2

[4] = system: oat, wild (wild oat, Avena fatua)
From the text: as §1, §2

[5] = system: oilseed rape (Brassica napus)
From the text: as §1, §2

[6] = system: wheat, winter (winter wheat, Triticum aestivum)
From the text: as §1, §2

[7] = system: chamomile (scentless chamomile, Matricaria inodora)
From the text: as §1, §2

[8] = system: windgrass (Apera spica-venti)
From the text: as §1, §2

[9] = system: field poppy (Papaver rhoeas)
From the text: as §1, §2

[10] = system: radish, wild (wild radish, Raphanus raphanistrum)
From the text: as §1, §2

[11] = system: barley, winter (winter barley, Hordeum vulgare)
From the text: as §1, §2

## Cc1cc(=O)n(-c2ccc(F)cc2)nc1Cc1ccnc(C(F)(F)F)c1 [Compound 1, 2-(4-fluorophenyl)-5-methyl-6-[[2-(trifluoromethyl)-4-pyridinyl]methyl]-3(2H)-pyridazinone]
[1]; Postemergence, 31 g ai/ha
  Plant response rating: 30
[1]; Postemergence, 62 g ai/ha
  Plant response rating: 30
[1]; Postemergence, 125 g ai/ha
  Plant response rating: 50
[1]; Postemergence, 250 g ai/ha
  Plant response rating: 50
[1]; Postemergence, 500 g ai/ha
  Plant response rating: 60
[1]; Preemergence, 31 g ai/ha
  Plant response rating: 100
[1]; Preemergence, 62 g ai/ha
  Plant response rating: 100
[1]; Preemergence, 125 g ai/ha
  Plant response rating: 100
[1]; Preemergence, 250 g ai/ha
  Plant response rating: 100
[1]; Preemergence, 500 g ai/ha
  Plant response rating: 100
[2]; Postemergence, 31 g ai/ha
  Plant response rating: 0
[2]; Postemergence, 62 g ai/ha
  Plant response rating: 0
[2]; Postemergence, 125 g ai/ha
  Plant response rating: 10
[2]; Postemergence, 250 g ai/ha
  Plant response rating: 15
[2]; Postemergence, 500 g ai/ha
  Plant response rating: 25
[2]; Preemergence, 31 g ai/ha
  Plant response rating: 0
[2]; Preemergence, 62 g ai/ha
  Plant response rating: 0
[2]; Preemergence, 125 g ai/ha
  Plant response rating: 20
[2]; Preemergence, 250 g ai/ha
  Plant response rating: 25
[2]; Preemergence, 500 g ai/ha
  Plant response rating: 25
[3]; Postemergence, 31 g ai/ha
  Plant response rating: 20
[3]; Postemergence, 62 g ai/ha
  Plant response rating: 20
[3]; Postemergence, 125 g ai/ha
  Plant response rating: 30
[3]; Postemergence, 250 g ai/ha
  Plant response rating: 40
[3]; Postemergence, 500 g ai/ha
  Plant response rating: 60
[3]; Preemergence, 31 g ai/ha
  Plant response rating: 0
[3]; Preemergence, 62 g ai/ha
  Plant response rating: 40
[3]; Preemergence, 125 g ai/ha
  Plant response rating: 70
[3]; Preemergence, 250 g ai/ha
  Plant response rating: 70
[3]; Preemergence, 500 g ai/ha
  Plant response rating: 70
[4]; Postemergence, 31 g ai/ha
  Plant response rating: 10
[4]; Postemergence, 62 g ai/ha
  Plant response rating: 10
[4]; Postemergence, 125 g ai/ha
  Plant response rating: 10
[4]; Postemergence, 250 g ai/ha
  Plant response rating: 10
[4]; Postemergence, 500 g ai/ha
  Plant response rating: 10
[4]; Preemergence, 62 g ai/ha
  Plant response rating: 0
[4]; Preemergence, 125 g ai/ha
  Plant response rating: 15
[4]; Preemergence, 250 g ai/ha
  Plant response rating: 35
[4]; Preemergence, 500 g ai/ha
  Plant response rating: 80
[5]; Postemergence, 31 g ai/ha
  Plant response rating: 35
[5]; Postemergence, 62 g ai/ha
  Plant response rating: 40
[5]; Postemergence, 125 g ai/ha
  Plant response rating: 50
[5]; Postemergence, 250 g ai/ha
  Plant response rating: 75
[5]; Postemergence, 500 g ai/ha
  Plant response rating: 80
[5]; Preemergence, 31 g ai/ha
  Plant response rating: 30
[5]; Preemergence, 62 g ai/ha
  Plant response rating: 30
[5]; Preemergence, 125 g ai/ha
  Plant response rating: 40
[5]; Preemergence, 250 g ai/ha
  Plant response rating: 75
[5]; Preemergence, 500 g ai/ha
  Plant response rating: 98
[6]; Postemergence, 31 g ai/ha
  Plant response rating: 0
[6]; Postemergence, 62 g ai/ha
  Plant response rating: 0
[6]; Postemergence, 125 g ai/ha
  Plant response rating: 5
[6]; Postemergence, 250 g ai/ha
  Plant response rating: 5
[6]; Postemergence, 500 g ai/ha
  Plant response rating: 10
[6]; Preemergence, 31 g ai/ha
  Plant response rating: 0
[6]; Preemergence, 62 g ai/ha
  Plant response rating: 0
[6]; Preemergence, 125 g ai/ha
  Plant response rating: 10
[6]; Preemergence, 250 g ai/ha
  Plant response rating: 50
[6]; Preemergence, 500 g ai/ha
  Plant response rating: 70
[7]; Postemergence, 31 g ai/ha
  Plant response rating: 30
[7]; Postemergence, 62 g ai/ha
  Plant response rating: 30
[7]; Postemergence, 125 g ai/ha
  Plant response rating: 30
[7]; Postemergence, 250 g ai/ha
  Plant response rating: 60
[7]; Postemergence, 500 g ai/ha
  Plant response rating: 50
[7]; Preemergence, 125 g ai/ha
  Plant response rating: 70
[7]; Preemergence, 250 g ai/ha
  Plant response rating: 90
[7]; Preemergence, 500 g ai/ha
  Plant response rating: 100
[8]; Postemergence, 31 g ai/ha
  Plant response rating: 20
[8]; Postemergence, 62 g ai/ha
  Plant response rating: 20
[8]; Postemergence, 125 g ai/ha
  Plant response rating: 20
[8]; Postemergence, 250 g ai/ha
  Plant response rating: 20
[8]; Postemergence, 500 g ai/ha
  Plant response rating: 20
[8]; Preemergence, 31 g ai/ha
  Plant response rating: 0
[8]; Preemergence, 62 g ai/ha
  Plant response rating: 20
[8]; Preemergence, 125 g ai/ha
  Plant response rating: 100
[8]; Preemergence, 250 g ai/ha
  Plant response rating: 100
[8]; Preemergence, 500 g ai/ha
  Plant response rating: 100
[9]; Postemergence, 31 g ai/ha
  Plant response rating: 30
[9]; Postemergence, 62 g ai/ha
  Plant response rating: 60
[9]; Postemergence, 125 g ai/ha
  Plant response rating: 60
[9]; Postemergence, 250 g ai/ha
  Plant response rating: 80
[9]; Postemergence, 500 g ai/ha
  Plant response rating: 85
[9]; Preemergence, 31 g ai/ha
  Plant response rating: 50
[9]; Preemergence, 62 g ai/ha
  Plant response rating: 95
[9]; Preemergence, 125 g ai/ha
  Plant response rating: 95
[9]; Preemergence, 250 g ai/ha
  Plant response rating: 100
[9]; Preemergence, 500 g ai/ha
  Plant response rating: 100
[10]; Postemergence, 31 g ai/ha
  Plant response rating: 10
[10]; Postemergence, 62 g ai/ha
  Plant response rating: 25
[10]; Postemergence, 125 g ai/ha
  Plant response rating: 35
[10]; Postemergence, 250 g ai/ha
  Plant response rating: 50
[10]; Postemergence, 500 g ai/ha
  Plant response rating: 90
[10]; Preemergence, 62 g ai/ha
  Plant response rating: 75
[10]; Preemergence, 125 g ai/ha
  Plant response rating: 60
[10]; Preemergence, 250 g ai/ha
  Plant response rating: 100
[10]; Preemergence, 500 g ai/ha
  Plant response rating: 100
[11]; Postemergence, 31 g ai/ha
  Plant response rating: 0
[11]; Postemergence, 62 g ai/ha
  Plant response rating: 0
[11]; Postemergence, 125 g ai/ha
  Plant response rating: 0
[11]; Postemergence, 250 g ai/ha
  Plant response rating: 10
[11]; Postemergence, 500 g ai/ha
  Plant response rating: 15
[11]; Preemergence, 31 g ai/ha
  Plant response rating: 0
[11]; Preemergence, 62 g ai/ha
  Plant response rating: 5
[11]; Preemergence, 125 g ai/ha
  Plant response rating: 5
[11]; Preemergence, 250 g ai/ha
  Plant response rating: 40
[11]; Preemergence, 500 g ai/ha
  Plant response rating: 60
